Columns and labels:
POLCO [1] = experiment: Herbicidal pre-emergence action 2a (greenhouse pots, visual scoring); type: in vivo, Polygonum convolvulus; conditions: dosage 320 g/ha, visual scoring after about 3 weeks vs untreated controls
Procedure, shortened: (§1)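 Weed and crop seeds placed in pots and covered with soil; aqueous suspension or emulsion of WP/EC formulation applied to the soil surface before emergence (600 l/ha, 0.5% additive, 320 and/or 80 g/ha). Pots kept in the greenhouse about 3 weeks; visual percentage scoring.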

VERPE [2] = experiment: Herbicidal post-emergence action 1a (greenhouse pots, visual rating); type: in vivo, Veronica persica; conditions: visual rating about 3 weeks after treatment
Procedure, shortened: (§2)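 Visual scoring versus untreated plants (100% = plants dead, 0% = as control) followed roughly 3 weeks in the greenhouse after treatment. Plants grown in sandy loam pots had been sprayed on green parts at the one-leaf stage, 2–3 weeks post-sowing, with aqueous WP/EC preparations containing 0.5% additive, 600 l/ha, at 320 and/or 80 g/ha.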

ALOMY [3] = experiment: Herbicidal pre-emergence action 2a (greenhouse pots, visual scoring); type: in vivo, Alopecurus myosuroides; conditions: dosage 320 g/ha, visual scoring after about 3 weeks
Procedure, shortened: as §1

MATIN [4] = experiment: as above; type: in vivo, Matricaria inodora; conditions: dosage 320 g/ha, visual scoring after about 3 weeks vs untreated controls
Procedure, shortened: as §1

SETVI [5] = experiment: as above; type: in vivo, Setaria viridis; conditions: dosage 320 g/ha, visual scoring after about 3 weeks vs untreated controls
Procedure, shortened: as §1

AMARE [6] = experiment: as above; type: in vivo, Amaranthus retroflexus; conditions: dosage 320 g/ha, visual scoring after about 3 weeks vs untreated controls
Procedure, shortened: as §1

LOLRI [7] = experiment: as above; type: in vivo, Lolium rigidum; conditions: dosage 320 g/ha, visual scoring after about 3 weeks vs untreated controls
Procedure, shortened: as §1

ECHCG [8] = experiment: Herbicidal post-emergence action 1a (greenhouse pots, visual rating); type: in vivo, Echinochloa crus-galli; conditions: rated visually about 3 weeks after treatment, 100% = plants have died, 0% = like control plants
Procedure, shortened: as §2

PHBPU [9] = experiment: as above; type: in vivo, Pharbitis purpurea; conditions: visual rating about 3 weeks after treatment
Procedure, shortened: as §2

SETVI [10] = experiment: as above; type: in vivo, Setaria viridis; conditions: rated visually about 3 weeks after treatment, 100% = plants have died, 0% = like control plants
Procedure, shortened: as §2

AVEFA [11] = experiment: as above; type: in vivo, Avena fatua; conditions: rated visually about 3 weeks after treatment, 100% = plants have died, 0% = like control plants
Procedure, shortened: as §2

ECHCG [12] = experiment: Herbicidal pre-emergence action 2a (greenhouse pots, visual scoring); type: in vivo, Echinochloa crus-galli; conditions: dosage 320 g/ha, visual scoring after about 3 weeks
Procedure, shortened: as §1

VERPE [13] = experiment: as above; type: in vivo, Veronica persica; conditions: dosage 320 g/ha, visual scoring after about 3 weeks vs untreated controls
Procedure, shortened: as §1

PHBPU [14] = experiment: as above; type: in vivo, Pharbitis purpurea; conditions: dosage 320 g/ha, visual scoring after about 3 weeks vs untreated controls
Procedure, shortened: as §1

POLCO [15] = experiment: Herbicidal post-emergence action 1a (greenhouse pots, visual rating); type: in vivo, Polygonum convolvulus; conditions: visual rating about 3 weeks after treatment
Procedure, shortened: as §2

MATIN [16] = experiment: as above; type: in vivo, Matricaria inodora; conditions: visual rating about 3 weeks after treatment
Procedure, shortened: as §2

AMARE [17] = experiment: as above; type: in vivo, Amaranthus retroflexus; conditions: visual rating about 3 weeks after treatment
Procedure, shortened: as §2

AVEFA [18] = experiment: Herbicidal pre-emergence action 2a (greenhouse pots, visual scoring); type: in vivo, Avena fatua; conditions: dosage 320 g/ha, visual scoring after about 3 weeks
Procedure, shortened: as §1

ALOMY [19] = experiment: Herbicidal post-emergence action 1a (greenhouse pots, visual rating); type: in vivo, Alopecurus myosuroides; conditions: rated visually about 3 weeks after treatment, 100% = plants have died, 0% = like control plants
Procedure, shortened: as §2

ABUTH [20] = experiment: as above; type: in vivo, Abutilon theophrasti; conditions: visual rating about 3 weeks after treatment
Procedure, shortened: as §2

ABUTH [21] = experiment: Herbicidal pre-emergence action 2a (greenhouse pots, visual scoring); type: in vivo, Abutilon theophrasti; conditions: dosage 320 g/ha, visual scoring after about 3 weeks vs untreated controls
Description: [table] a) Seeds of monocotyledonous and dicotyledonous weed plants and crop plants are placed in plastic or organic plant pots and covered with soil. The compounds of the invention, formulated in the form of wettable powders (WP) or as emulsion concentrates (EC), are then applied onto the surface of the covering soil as aqueous suspension or emulsion with addition of 0.5% additive at a water application rate of 600 1/ha (converted). After the treatment, the pots are placed in a greenhouse and kept under good growth conditions for the trial plants. After about 3 weeks, the effect of the preparations is scored visually in comparison with untreated controls as percentages. For example, 100% activity=the plants have died, 0% activity=like control plants. Tables B1 to B15 below show the effects of selected compounds of the general formula (I) according to Tables 1 and 2 on various harmful plants and an application rate corresponding to 320 g/ha and/or 80 g/ha, which were obtained by the experimental procedure mentioned above.

LOLRI [22] = experiment: Herbicidal post-emergence action 1a (greenhouse pots, visual rating); type: in vivo, Lolium rigidum; conditions: rated visually about 3 weeks after treatment, 100% = plants have died, 0% = like control plants
Procedure, shortened: as §2

SMILES | Pre-emergence action against POLCO in % (POLCO [1]) [%] | Post-emergence action against VERPE in % (VERPE [2]; dosage 80 g/ha) [%] | Post-emergence action against VERPE in % (VERPE [2]; dosage 320 g/ha) [%] | Pre-emergence action against ALOMY in % (ALOMY [3]) [%] | Pre-emergence action against MATIN in % (MATIN [4]) [%] | Pre-emergence action against SETVI in % (SETVI [5]) [%] | Pre-emergence action against AMARE in % (AMARE [6]) [%] | Pre-emergence action against LOLRI in % (LOLRI [7]) [%] | Post-emergence action against ECHCG in % (ECHCG [8]; Dosage 80 g/ha) [%] | Post-emergence action against ECHCG in % (ECHCG [8]; Dosage 320 g/ha) [%] | Post-emergence action against PHBPU in % (PHBPU [9]; dosage 80 g/ha) [%] | Post-emergence action against PHBPU in % (PHBPU [9]; dosage 320 g/ha) [%] | Post-emergence action against SETVI in % (SETVI [10]; Dosage 80 g/ha) [%] | Post-emergence action against SETVI in % (SETVI [10]; Dosage 320 g/ha) [%] | Post-emergence action against AVEFA in % (AVEFA [11]; Dosage 320 g/ha) [%] | Pre-emergence action against ECHCG in % (ECHCG [12]) [%] | Pre-emergence action against VERPE in % (VERPE [13]) [%] | Pre-emergence action against PHBPU in % (PHBPU [14]) [%] | Post-emergence action against POLCO in % (POLCO [15]; dosage 320 g/ha) [%] | Pre-emergence action against AVEFA in % (AVEFA [18]) [%] | further results
COC(=O)[C@@H](C)Oc1nn(-c2cnccn2)c(-c2cncc(F)c2)c1Cl [Example I-95] | 100 | 90 | 90 | 100 | 100 | 100 | 100 | 100 | 90 | 90 | 90 | 90 | 90 | 90 | 90 | 100 | 100 | 90 | 90 | 90 | Post-emergence action against AVEFA in % (AVEFA [11]; Dosage 80 g/ha): 80%; Post-emergence action against POLCO in % (POLCO [15]; dosage 80 g/ha): 90%; Post-emergence action against MATIN in % (MATIN [16]; dosage 80 g/ha): 80%; Post-emergence action against MATIN in % (MATIN [16]; dosage 320 g/ha): 90%; Post-emergence action against AMARE in % (AMARE [17]; dosage 80 g/ha): 90%; Post-emergence action against AMARE in % (AMARE [17]; dosage 320 g/ha): 90%; Post-emergence action against ALOMY in % (ALOMY [19]; Dosage 80 g/ha): 100%; Post-emergence action against ALOMY in % (ALOMY [19]; Dosage 320 g/ha): 100%; Post-emergence action against ABUTH in % (ABUTH [20]; dosage 80 g/ha): 90%; Post-emergence action against ABUTH in % (ABUTH [20]; dosage 320 g/ha): 90%; Pre-emergence action against ABUTH in % (ABUTH [21]): 90%; Post-emergence action against LOLRI in % (LOLRI [22]; Dosage 80 g/ha): 90%; Post-emergence action against LOLRI in % (LOLRI [22]; Dosage 320 g/ha): 90%
C[C@@H](Oc1nn(-c2cnccn2)c(-c2cncc(F)c2)c1Br)C(=O)O [Example I-96] | 100 | 90 | 90 | 100 | 100 | 100 | 100 | 100 | 80 | 90 | 90 | 90 | 90 | 90 | 90 | 100 | 100 | 90 | 80 | 90 | Post-emergence action against POLCO in % (POLCO [15]; dosage 80 g/ha): 80%; Post-emergence action against MATIN in % (MATIN [16]; dosage 80 g/ha): 80%; Post-emergence action against MATIN in % (MATIN [16]; dosage 320 g/ha): 90%; Post-emergence action against ALOMY in % (ALOMY [19]; Dosage 320 g/ha): 100%; Pre-emergence action against ABUTH in % (ABUTH [21]): 90%; Post-emergence action against LOLRI in % (LOLRI [22]; Dosage 80 g/ha): 100%; Post-emergence action against LOLRI in % (LOLRI [22]; Dosage 320 g/ha): 100%
CCOC(=O)[C@@H](C)Oc1nn(-c2cnccn2)c(-c2cncc(F)c2)c1Cl [Example I-98] | 90 | 80 | 80 | 90 | 90 | 100 | 100 | 90 | 80 | 80 | 90 | 90 | 80 | 80 | 80 | 100 | 100 | 80 | 80 | 80 | Post-emergence action against AVEFA in % (AVEFA [11]; Dosage 80 g/ha): 80%; Post-emergence action against AMARE in % (AMARE [17]; dosage 320 g/ha): 80%; Post-emergence action against ALOMY in % (ALOMY [19]; Dosage 80 g/ha): 80%; Post-emergence action against ALOMY in % (ALOMY [19]; Dosage 320 g/ha): 80%; Post-emergence action against ABUTH in % (ABUTH [20]; dosage 80 g/ha): 80%; Post-emergence action against ABUTH in % (ABUTH [20]; dosage 320 g/ha): 80%; Pre-emergence action against ABUTH in % (ABUTH [21]): 90%; Post-emergence action against LOLRI in % (LOLRI [22]; Dosage 320 g/ha): 90%
CCOC(=O)[C@@H](C)Oc1nn(-c2cnccn2)c(-c2cncc(F)c2)c1Br [Example I-99] | 90 | 90 | 90 | 100 | 100 | 100 | 100 | 100 | 90 | 90 | 80 | 90 | 90 | 90 | 100 | 100 | 100 | 90 | 80 | 90 | Post-emergence action against AVEFA in % (AVEFA [11]; Dosage 80 g/ha): 80%; Post-emergence action against POLCO in % (POLCO [15]; dosage 80 g/ha): 80%; Post-emergence action against MATIN in % (MATIN [16]; dosage 80 g/ha): 80%; Post-emergence action against MATIN in % (MATIN [16]; dosage 320 g/ha): 90%; Post-emergence action against AMARE in % (AMARE [17]; dosage 80 g/ha): 90%; Post-emergence action against AMARE in % (AMARE [17]; dosage 320 g/ha): 90%; Post-emergence action against ALOMY in % (ALOMY [19]; Dosage 80 g/ha): 80%; Post-emergence action against ALOMY in % (ALOMY [19]; Dosage 320 g/ha): 100%; Pre-emergence action against ABUTH in % (ABUTH [21]): 90%; Post-emergence action against LOLRI in % (LOLRI [22]; Dosage 80 g/ha): 100%; Post-emergence action against LOLRI in % (LOLRI [22]; Dosage 320 g/ha): 100%

Source: US20230167088A1, “1-PYRAZINYLPYRAZOLYL-3-OXYALKYL ACIDS AND THEIR DERIVATIVES, AND THEIR USE FOR CONTROL OF UNDESIRED PLANT GROWTH” (BAYER AKTIENGESELLSCHAFT, priority 2020, published 2023)
